How the values were obtained:
PSMA = PSMA (Homo sapiens, UniProt Q04609); settings: 22Rv1 cells, 1 hour at 37° C., non-specific binding with 250 μM PMPA, nonlinear regression
Method: The PSMA-positive prostate cancer cell line 22Rv1 was placed in a 24-well plate at the density of 1×10^5 cells/well, followed by culture in a 37° C., 5% CO2 incubator for 24 hours. […] 0.5 mL of the diluted solution was taken and put into cultured cells and incubated in a 37° C., 5% CO2 incubator for 1 hour. After removing the culture medium, the cells were washed twice with fresh culture medium, 1 mL of 0.5% sodium dodecyl sulfate (SDS) dissolved in phosphate buffered saline was added thereto, gently shaken to dissolve, and then transferred to a 5 mL disposable plastic test tube. The radioactivity of the tube was measured using a gamma counter. […] Specific binding was obtained by subtracting non-specific binding from total binding, and a saturation curve was drawn. […] From these saturation curves, the dissociation constant, Kd, was calculated by nonlinear regression using GraphPad Prism 7 program.

[1] = Stability test in human serum; type: in vitro ADME; settings: 36.5° C., after 2 hours
Method: The stability test in human serum is to test the stability when it comes into contact with human serum after administration to the human body, and the stability in the body is partly tested in vitro.
In order to examine the stability of [^99mTc]Tc-15 according to the present invention in human serum, 3.7 MBq of [^99mTc]Tc-15 (100 μL) prepared in Example 3 was added to 1 mL of human serum, mixed well, and then cultured at 36.5° C. with stirring. After 2 hours, the reaction mixture was analyzed by ITLC.
In order to examine the stability of [^99mTc]Tc-16 according to the present invention in human serum, 3.7 MBq of [^99mTc]Tc-16 (100 μL) prepared in Example 4 was added to 1 mL of human serum, mixed well, and then cultured at 36.5° C. with stirring. After 2 hours, the reaction mixture was analyzed by ITLC.

[2] = tested on: PSMA-targeted 22Rv1 tumor; assay: In vivo distribution test in cancer transplantation animals; parameters: species or system BALB/c male nude mice
Method: Specifically, 0.1 mL of RPMI1640 culture medium containing 5×10^6 22 Rv1 cells was subcutaneously injected into the left flank of a 4-week-old male BALB/c nude mouse. After 2 to 3 weeks, the present inventors confirmed that the tumor tissue had reached an appropriate size and used it in the experiment. For animal injection, [^99mTc]Tc-15 prepared in Example 3 and [^99mTc]Tc-16 prepared in Example 4 were each diluted in saline for injection to a concentration of 0.74 MBq/100 μL. Each of these was injected into the tail vein of the mice transplanted with cancer cells, and after 1 hour and 4 hours, cancer, blood, muscle, heart. Lung, liver, spleen, stomach, small intestine, kidney, bone, and the like were collected and their weight and radioactivity were measured.

[3] = tested on: PSMA-expressing 22Rv1 tumor; assay: SPECT imaging in 22Rv1 cell-transplanted mice; type: in vivo, BALB/c nude mouse; settings: for tumor intake in SPECT image: intravenous injection
Method: Specifically, 0.1 mL of RPMI1640 culture medium containing 5×10^6 22 Rv1 cells was subcutaneously injected into the right back of a 4-week-old male BALE/c nude mouse. After 2 to 3 weeks, the present inventors confirmed that the tumor tissue had reached an appropriate size and used it in the experiment. For animal injection, [^99mTc]Tc-15 and [^99mTc]Tc-16 were each diluted in saline for injection to a concentration of 10.2 MBq/100 μL. […]

[4] = 1 h Blockade, co-injection of 2-PMPA (100 μg)
[5] = 4 h Blockade, co-injection of 2-PMPA (100 μg)

PSMA, sequence (Q04609 whole entry): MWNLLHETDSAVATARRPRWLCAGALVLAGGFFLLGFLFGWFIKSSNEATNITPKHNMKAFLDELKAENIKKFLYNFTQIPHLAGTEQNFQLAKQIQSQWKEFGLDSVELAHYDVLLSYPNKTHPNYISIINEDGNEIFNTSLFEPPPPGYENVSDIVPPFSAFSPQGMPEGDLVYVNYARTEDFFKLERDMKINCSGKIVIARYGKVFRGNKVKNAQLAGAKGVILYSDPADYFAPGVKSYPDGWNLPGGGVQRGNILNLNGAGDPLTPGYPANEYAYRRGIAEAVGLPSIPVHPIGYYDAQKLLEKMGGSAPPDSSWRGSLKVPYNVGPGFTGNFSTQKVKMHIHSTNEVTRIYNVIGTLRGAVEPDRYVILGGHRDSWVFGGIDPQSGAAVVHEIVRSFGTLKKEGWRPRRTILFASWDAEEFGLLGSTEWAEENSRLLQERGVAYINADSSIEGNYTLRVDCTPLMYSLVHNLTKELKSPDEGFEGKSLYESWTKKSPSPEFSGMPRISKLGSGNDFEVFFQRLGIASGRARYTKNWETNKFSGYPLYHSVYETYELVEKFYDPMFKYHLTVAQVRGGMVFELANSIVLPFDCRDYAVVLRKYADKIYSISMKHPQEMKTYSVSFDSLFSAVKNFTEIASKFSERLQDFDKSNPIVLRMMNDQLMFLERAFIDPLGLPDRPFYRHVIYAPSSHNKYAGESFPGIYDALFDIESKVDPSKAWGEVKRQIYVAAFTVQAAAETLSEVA

[99Tc+].[C-]#[N+]CCC(=O)NCCCCCC(=O)NC(Cc1ccccc1)C(=O)N[C@H](Cc1ccccc1)C(=O)NCCCCCC(=O)NCCCCC(NC(=O)N[C@@H](CCC(=O)O)C(=O)O)C(=O)O.[C-]#[N+]CCC(=O)NCCCCCC(=O)NC(Cc1ccccc1)C(=O)N[C@H](Cc1ccccc1)C(=O)NCCCCCC(=O)NCCCCC(NC(=O)N[C@@H](CCC(=O)O)C(=O)O)C(=O)O.[C-]#[N+]CCC(=O)NCCCCCC(=O)NC(Cc1ccccc1)C(=O)N[C@H](Cc1ccccc1)C(=O)NCCCCCC(=O)NCCCCC(NC(=O)N[C@@H](CCC(=O)O)C(=O)O)C(=O)O.[C-]#[O+].[C-]#[O+].[C-]#[O+] (stereo partly shown) [[^99mTc]Tc-16]
Kd (PSMA): 0.2 nM | stability in human serum (ITLC) [1]: most of them were present as [^99mTc]Tc-16 and hardly separated as ^99mTc | In vivo distribution, Blood ([2]; 1 h): 0.42 % ID/g | In vivo distribution, Bone ([2]; 1 h): 0.63 % ID/g | In vivo distribution, Heart ([2]; 1 h): 0.36 % ID/g | In vivo distribution, Intestine ([2]; 1 h): 0.47 % ID/g | In vivo distribution, Kidney ([2]; 1 h): 24.66 % ID/g | In vivo distribution, Liver ([2]; 1 h): 1.17 % ID/g | In vivo distribution, Lung ([2]; 1 h): 0.52 % ID/g | In vivo distribution, Muscle ([2]; 1 h): 0.13 % ID/g | In vivo distribution, Spleen ([2]; 1 h): 3.40 % ID/g | In vivo distribution, Stomach ([2]; 1 h): 0.85 % ID/g | In vivo distribution, Tail ([2]; 1 h): 0.49 % ID/g | In vivo distribution, Tumor ([2]; 1 h): 1.87 % ID/g | Tumor/blood ([2]; 1 h): 4.43 | Tumor/kidney ([2]; 1 h): 0.08 | Tumor/liver ([2]; 1 h): 1.60 | Tumor/muscle ([2]; 1 h): 14.05 | In vivo distribution, Blood [2, 4]: 0.75 % ID/g | In vivo distribution, Bone [2, 4]: 1.16 % ID/g | In vivo distribution, Heart [2, 4]: 0.48 % ID/g | In vivo distribution, Intestine [2, 4]: 0.85 % ID/g | In vivo distribution, Kidney [2, 4]: 5.66 % ID/g | In vivo distribution, Liver [2, 4]: 1.95 % ID/g | In vivo distribution, Lung [2, 4]: 1.63 % ID/g | In vivo distribution, Muscle [2, 4]: 0.22 % ID/g | In vivo distribution, Spleen [2, 4]: 0.40 % ID/g | In vivo distribution, Stomach [2, 4]: 1.04 % ID/g | In vivo distribution, Tail [2, 4]: 1.18 % ID/g | In vivo distribution, Tumor [2, 4]: 0.45 % ID/g | Tumor/blood [2, 4]: 0.61 | Tumor/kidney [2, 4]: 0.08 | Tumor/liver [2, 4]: 0.23 | Tumor/muscle [2, 4]: 2.16 | In vivo distribution, Blood ([2]; 4 h): 0.17 % ID/g | In vivo distribution, Bone ([2]; 4 h): 1.04 % ID/g | In vivo distribution, Heart ([2]; 4 h): 0.25 % ID/g | In vivo distribution, Intestine ([2]; 4 h): 1.48 % ID/g | In vivo distribution, Kidney ([2]; 4 h): 39.65 % ID/g | In vivo distribution, Liver ([2]; 4 h): 0.69 % ID/g | In vivo distribution, Lung ([2]; 4 h): 0.36 % ID/g | In vivo distribution, Muscle ([2]; 4 h): 0.07 % ID/g | In vivo distribution, Spleen ([2]; 4 h): 3.44 % ID/g | In vivo distribution, Stomach ([2]; 4 h): 0.42 % ID/g | In vivo distribution, Tail ([2]; 4 h): 0.48 % ID/g | In vivo distribution, Tumor ([2]; 4 h): 2.83 % ID/g | Tumor/blood ([2]; 4 h): 16.70 | Tumor/kidney ([2]; 4 h): 0.07 | Tumor/liver ([2]; 4 h): 4.17 | Tumor/muscle ([2]; 4 h): 40.43 | In vivo distribution, Blood [2, 5]: 0.15 % ID/g | In vivo distribution, Bone [2, 5]: 0.47 % ID/g | In vivo distribution, Heart [2, 5]: 0.11 % ID/g | In vivo distribution, Intestine [2, 5]: 1.26 % ID/g | In vivo distribution, Kidney [2, 5]: 3.59 % ID/g | In vivo distribution, Liver [2, 5]: 1.33 % ID/g | In vivo distribution, Lung [2, 5]: 0.45 % ID/g | In vivo distribution, Muscle [2, 5]: 0.05 % ID/g | In vivo distribution, Spleen [2, 5]: 0.20 % ID/g | In vivo distribution, Stomach [2, 5]: 0.23 % ID/g | In vivo distribution, Tail [2, 5]: 0.53 % ID/g | In vivo distribution, Tumor [2, 5]: 0.39 % ID/g | Tumor/blood [2, 5]: 2.67 | Tumor/kidney [2, 5]: 0.11 | Tumor/liver [2, 5]: 0.30 | Tumor/muscle [2, 5]: 8.44 | intake when PSMA was blocked with PMPA ([2]; summary of Tables 2 and 3): the intake was decreased | tissue with highest intake ([2]; summary of Tables 2 and 3): the highest intake in the kidney | tumor intake in SPECT image with PSMA blocked ([3]; MIP-1072 injected to selectively block PSMA): tumor intake was not observed | tumor intake in SPECT image ([3]; 1 hour after the injection): the increase in radioactivity was evident | tumor intake in SPECT image ([3]; 4 hours after the injection): the intake was more distinct | distribution observed in SPECT image ([3]; tail vein injection, 1 hour and 3 hours): not only excreted by the kidney but also ingested into the prostate cancer tissue | intake in prostate cancer in SPECT image, compared between the two labeled compounds ([3]; tail vein injection, FIGS. 4A and 5A): higher intake in prostate cancer

From US12486294B2, “Radioisotope labeled compound for imaging or treatment of prostate cancer” (SEOUL NATIONAL UNIVERSITY R&DB FOUNDATION, priority 2019, dated 2025)
